Data from patent US20070264659A1, “LUNG CANCER BIOMARKER DISCOVERY” (priority 2006, published 2007).

System: lung cancer cell lines A549, NCI-H146 and NCI-H358
Experiment: Reactivation of 20 identified genes by treatment of demethylating agent (gene expression)
Type: cell-based
Conditions: lung cancer cells treated with DAC compared with untreated cells; FIG. 4B
Description: Separately, lung cancer cell lines such as A549, NCI-H146 and NCI-H358 are treated with a demethylating agent DAC and assayed for reactivation of genes that are normally repressed in tumor cells. Overlapping genes between the tumor suppressed gene set and the demethylation reactivated gene set are considered to be candidate genes for lung cancer biomarkers. One hundred six (106) such overlapping genes were found (FIG. 1). Methylation sensitive enzyme/nucleic acid sequence based amplification analysis such as Hpa II Mspl enzyme digestion/PCR (or enzyme digestion post-PCR) further removed a few other genes that were not methylated in any of the lung cancer cell lines. To further confirm biochemically that the candidate gene was indeed methylated in tumor cells, bisulfite sequencing assays were conducted and methylation of the final 20 genes was verified.
Gene expression profiles of the 20 genes were created. The expression level of the 20 genes was measured in lung cancer cell lines treated with DAC (FIG. 4B). Methylation status of the genes was also measured using methylation sensitive enzyme/nucleic acid sequence based amplification analysis such as Hpa II/MspI enzyme digestion/PCR (or enzyme digestion post-PCR) method on lung cancer cell lines and the results for the 20 genes is shown in FIG. 4A. The identified genes are not methylated in normal cells. […]

For `Nc1ncn([C@H]2C[C@H](O)[C@@H](CO)O2)c(=O)n1` [DAC, 5 aza 2′-deoxycytidine], the “gene expression of the 20 identified genes in lung cancer cells treated with demethylating agent” value was “reactivated”.
